Source: article PMC3934385, “Componential Profile and Amylase Inhibiting Activity of Phenolic Compounds from Calendula officinalis L. Leaves” (The Scientific World Journal, 2014)
Values after ≈ are worked out from the molar mass of the structure shown.

Target: T1, amylase from Aspergillus niger
T1 construct: gene aamA
Experiment: starch hydrolysis, glucose oxidase/peroxidase coupled, A510 microplate
Type: biochemical
Details: 2% starch, phosphate pH 5.0, preincubation 20 min 45°C, then 30 min 50°C
From the text: starch hydrolysis, glucose oxidase/peroxidase coupled, A510 microplate on amylase from Aspergillus niger

Structure (SMILES)	IC50	IC50 (μg mL^-1)
COc1cc(C(=O)OC[C@H]2OC(O)[C@H](O)[C@@H](O)[C@@H]2O)ccc1O (mixture of isomers) [compound 6, 6′-O-vanilloyl-β-D-glucopyranose]	79.18 µg/mL	–
C[C@H]1O[C@H](O[C@H]2[C@H](O)[C@@H](O)[C@@H](O[C@H]3[C@H](O)[C@@H](O)C(O)O[C@@H]3CO)O[C@@H]2CO)[C@H](O)[C@@H](O)[C@@H]1N[C@H]1C=C(CO)[C@@H](O)[C@H](O)[C@H]1O (stereo partly shown) [Acarbose, reference compound]	9.54 ± 0.32 µg/mL (≈ 14.8 µM)	–
O=C(O[C@@H]1O[C@H](CO)[C@@H](O)[C@H](O)[C@H]1O)c1ccc(O)cc1 [compound 1, 1′-O-p-hydroxybenzoyl-β-D-glucopyranose]	> 100 µg/mL	–
O=C(OC[C@H]1OC(O)[C@H](O)[C@@H](O)[C@@H]1O)c1ccc(O)cc1 (stereo partly drawn) [compound 2, 6′-O-p-hydroxybenzoyl-β-D-glucopyranose]	> 100 µg/mL	–
O=C(O[C@@H]1O[C@H](CO)[C@@H](O)[C@H](O)[C@H]1O)c1ccc(O)c(O)c1 [compound 3, 1′-O-protocatechuoyl-β-D-glucopyranose]	62.46 µg/mL (≈ 197 µM)	–
O=C(OC[C@H]1OC(O)[C@H](O)[C@@H](O)[C@@H]1O)c1ccc(O)c(O)c1 (stereo partly drawn) [compound 4, 6′-O-protocatechuoyl-β-D-glucopyranose]	66.52 µg/mL (≈ 210 µM)	–
COc1cc(C(=O)O[C@@H]2O[C@H](CO)[C@@H](O)[C@H](O)[C@H]2O)ccc1O [compound 5, 1′-O-vanilloyl-β-D-glucopyranose]	73.69 µg/mL (≈ 223 µM)	–
O=C(O)/C=C/c1ccc(O)c(O)c1 [compound 7, caffeic acid]	2.53 µg/mL (≈ 14 µM)	–
O=C(/C=C/c1ccc(O)c(O)c1)O[C@@H]1C[C@](O)(C(=O)O)C[C@@H](OC(=O)/C=C/c2ccc(O)c(O)c2)[C@H]1O [compound 9, 3,5-di-O-caffeoylquinic acid]	25.63 µg/mL (≈ 49.6 µM)	–
O=C(/C=C/c1ccc(O)c(O)c1)O[C@@H]1C[C@](OC(=O)/C=C/c2ccc(O)c(O)c2)(C(=O)O)C[C@@H](O)[C@H]1O [compound 10, 1,5-di-O-caffeoylquinic acid]	37.15 µg/mL (≈ 71.9 µM)	–
O=C(/C=C/c1ccc(O)c(O)c1)O[C@@H]1[C@H](O)C[C@@](O)(C(=O)O)C[C@H]1OC(=O)/C=C/c1ccc(O)c(O)c1 [compound 11, 4,5-di-O-caffeoylquinic acid]	26.65 µg/mL (≈ 51.6 µM)	–
O=c1ccc2ccc(O)cc2o1 [compound 12, umbelliferone]	> 100 µg/mL	–
O=c1ccc2cc(O)c(O)cc2o1 [compound 13, aesculetin]	1.02 µg/mL (≈ 5.73 µM)	–
O=c1ccc2cc(O[C@@H]3O[C@H](CO)[C@@H](O)[C@H](O)[C@H]3O)c(O)cc2o1 [compound 14, aesculin]	> 100 µg/mL	–
O=c1ccc2cc(O)c(O[C@@H]3O[C@H](CO)[C@@H](O)[C@H](O)[C@H]3O)cc2o1 [compound 15, cichoriin]	> 100 µg/mL	–
COc1cc2ccc(=O)oc2cc1O [compound 16, scopoletin]	–	~ 100 μg mL^−1
O=c1c(O)c(-c2ccc(O)c(O)c2)oc2cc(O)cc(O)c12 [compound 17, quercetin]	1.79 µg/mL (≈ 5.92 µM)	–
O=c1c(O[C@@H]2O[C@H](CO)[C@@H](O)[C@H](O)[C@H]2O)c(-c2ccc(O)c(O)c2)oc2cc(O)cc(O)c12 [compound 18, isoquercitrin]	15.45 µg/mL (≈ 33.3 µM)	–
CC(=O)OC[C@H]1O[C@@H](Oc2c(-c3ccc(O)c(O)c3)oc3cc(O)cc(O)c3c2=O)[C@H](O)[C@@H](O)[C@@H]1O [compound 19, quercetin-3-O-(6′′-acetyl)-β-D-glucopyranoside]	32.70 µg/mL (≈ 64.6 µM)	–
C[C@@H]1O[C@@H](OC[C@H]2O[C@@H](Oc3c(-c4ccc(O)c(O)c4)oc4cc(O)cc(O)c4c3=O)[C@H](O)[C@@H](O)[C@@H]2O)[C@H](O)[C@H](O)[C@H]1O [compound 20, rutin]	89.85 µg/mL (≈ 147 µM)	–
COc1cc(-c2oc3cc(O)cc(O)c3c(=O)c2O)ccc1O [compound 21, isorhamnetin]	2.64 µg/mL (≈ 8.35 µM)	–
COc1cc(-c2oc3cc(O)cc(O)c3c(=O)c2O[C@@H]2O[C@H](CO)[C@@H](O)[C@H](O)[C@H]2O)ccc1O [compound 22, isorhamnetin-3-O-β-D-glucopyranoside]	23.41 µg/mL (≈ 48.9 µM)	–
COc1cc(-c2oc3cc(O)cc(O)c3c(=O)c2O[C@@H]2O[C@H](COC(C)=O)[C@@H](O)[C@H](O)[C@H]2O)ccc1O [compound 23, isorhamnetin-3-O-(6′′-acetyl)-β-D-glucopyranoside]	–	~ 100 μg mL^−1
COc1cc(-c2oc3cc(O)cc(O)c3c(=O)c2O[C@@H]2O[C@H](CO[C@@H]3O[C@@H](C)[C@H](O)[C@@H](O)[C@H]3O)[C@@H](O)[C@H](O)[C@H]2O)ccc1O [compound 24, narcissin]	> 100 µg/mL	–
COc1cc(-c2oc3cc(O)cc(O)c3c(=O)c2O[C@@H]2O[C@H](CO[C@@H]3O[C@@H](C)[C@H](O)[C@@H](O)[C@H]3O)[C@@H](O)[C@H](O)[C@H]2O[C@@H]2O[C@@H](C)[C@H](O)[C@@H](O)[C@H]2O)ccc1O [compound 25, thyphaneoside]	> 100 µg/mL	–
